ChEMBL document CHEMBL6096732 (J Med Chem, 2025)
Active and inactive are the calls of the source. The rule behind the calls is not given here.

How the values were obtained:
[1] = AUMC (0 to t) in male Sprague-Dawley rat at 20 mg/kg, po measured after 12 hrs by LC-MS/MS analysis; format: ADME, organism-based; details: in vivo
[2] = molecular target: T1, Histone deacetylase 3 (Mus musculus) (UniProt O88895); assay: Inhibition of HDAC3 in mouse 4T1 cells assessed as increase in histone H3 acetylation level at 5 to 20 uM incubated for 24 hrs by Western blot analysis; format: cell-based; details: dose 5-20 µM
T1 sequence (whole entry): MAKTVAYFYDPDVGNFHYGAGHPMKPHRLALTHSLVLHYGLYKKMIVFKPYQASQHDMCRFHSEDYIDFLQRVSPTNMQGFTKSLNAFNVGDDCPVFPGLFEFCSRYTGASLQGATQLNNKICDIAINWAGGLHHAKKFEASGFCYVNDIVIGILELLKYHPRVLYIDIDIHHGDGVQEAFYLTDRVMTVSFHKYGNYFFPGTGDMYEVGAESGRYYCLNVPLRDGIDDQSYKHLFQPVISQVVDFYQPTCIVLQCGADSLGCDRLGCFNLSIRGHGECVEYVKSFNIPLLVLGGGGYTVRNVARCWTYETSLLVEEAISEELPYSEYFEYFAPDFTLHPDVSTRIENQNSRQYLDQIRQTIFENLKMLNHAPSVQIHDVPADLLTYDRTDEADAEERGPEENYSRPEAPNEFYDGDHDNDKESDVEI

[3] = tested on: B16-F10; assay: Effect on acetylated alpha-tubulin expression level in mouse B16-F10 cells at 5 to 20 uM incubated for 24 hrs by Western blot analysis; format: functional, cell-based; details: dose 5-20 µM
[4] = molecular target: T1, Histone deacetylase 3 (Mus musculus); assay: In vivo inhibition of HDAC3 in male C57BL/6 mouse model implanted with mouse B16-F10 cells assessed as increase in acetylated histone H3 level at 50 mg/kg, po administered once daily via gavage for 14 days by Western blot analysis; format: functional, organism-based; details: time 14.0 day
[5] = AUC (0 to 12 hrs) in male Sprague-Dawley rat at 2 mg/kg, iv measured after 12 hrs by LC-MS/MS analysis; format: ADME, organism-based; details: in vivo
[6] = tested on: 4T1; assay: Antitumor activity against mouse 4T1 cells implanted in female BALB/c mouse model assessed as induction of DNA damage by measuring increase in gamma-H2AX expression in tumor administrated orally as once daily dose via gavage for 14 days by DAPI staining based immunofluorescence analysis; format: functional, cell-based; details: route po, time 14.0 day
[7] = tested on: B16-F10; assay: Effect on acetylated H3K56 expression level in mouse B16-F10 cells at 5 to 20 uM incubated for 24 hrs by Western blot analysis; format: functional, cell-based; details: dose 5-20 µM
[8] = VRT (0 to infinity) in male Sprague-Dawley rat at 2 mg/kg, iv measured after 12 hrs by LC-MS/MS analysis; format: ADME, organism-based; details: in vivo

## CCCNNC(=O)c1ccc(Cn2c3ccccc3c3c(-c4ccccn4)nc4ccccc4c32)cc1
[1]
  AUMCt: 34704.993 hr.hr.ug/L
[2]
  inhibition: Active
[3]
  Activity: inactive
[4]
  inhibition: Active
[5]
  AUC(0-t) at 12 h: 857 ng·h/mL
[6]
  Activity: Active; Comparable To The Effect Of Olaparib
[7]
  Activity: inactive
[8]
  VRT: 0.664 hr2
